Source: ChEMBL document CHEMBL5465560, “Selectivity Literature for EUbOPEN Chemogenomic Library” (2024)

How the values were obtained:
[1] = target: T1, Serine/threonine-protein kinase 17A (Homo sapiens) (UniProt Q9UEE5); experiment: Selectivity interaction (KinomeScan (DiscoverX)) EUB0000045b STK17A
T1 sequence (whole entry): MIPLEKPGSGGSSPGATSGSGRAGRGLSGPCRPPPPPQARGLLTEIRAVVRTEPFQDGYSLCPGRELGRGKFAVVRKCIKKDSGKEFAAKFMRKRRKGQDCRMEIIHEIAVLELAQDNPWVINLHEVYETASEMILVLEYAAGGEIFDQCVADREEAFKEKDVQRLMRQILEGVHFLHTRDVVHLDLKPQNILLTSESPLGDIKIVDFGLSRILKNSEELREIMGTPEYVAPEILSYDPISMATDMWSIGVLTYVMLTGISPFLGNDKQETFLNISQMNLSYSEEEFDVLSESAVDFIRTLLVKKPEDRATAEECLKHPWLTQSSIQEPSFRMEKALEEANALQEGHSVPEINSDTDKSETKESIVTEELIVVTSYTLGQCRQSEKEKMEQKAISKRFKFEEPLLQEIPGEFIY

[2] = target: Insulin-like growth factor 1 receptor (Homo sapiens, UniProt P08069); experiment: Selectivity interaction (KinomeScan (DiscoverX)) EUB0000666a IGF1R; details: at 10 µM
Chain of Insulin-like growth factor 1 receptor (P08069 31-736 limits assumed): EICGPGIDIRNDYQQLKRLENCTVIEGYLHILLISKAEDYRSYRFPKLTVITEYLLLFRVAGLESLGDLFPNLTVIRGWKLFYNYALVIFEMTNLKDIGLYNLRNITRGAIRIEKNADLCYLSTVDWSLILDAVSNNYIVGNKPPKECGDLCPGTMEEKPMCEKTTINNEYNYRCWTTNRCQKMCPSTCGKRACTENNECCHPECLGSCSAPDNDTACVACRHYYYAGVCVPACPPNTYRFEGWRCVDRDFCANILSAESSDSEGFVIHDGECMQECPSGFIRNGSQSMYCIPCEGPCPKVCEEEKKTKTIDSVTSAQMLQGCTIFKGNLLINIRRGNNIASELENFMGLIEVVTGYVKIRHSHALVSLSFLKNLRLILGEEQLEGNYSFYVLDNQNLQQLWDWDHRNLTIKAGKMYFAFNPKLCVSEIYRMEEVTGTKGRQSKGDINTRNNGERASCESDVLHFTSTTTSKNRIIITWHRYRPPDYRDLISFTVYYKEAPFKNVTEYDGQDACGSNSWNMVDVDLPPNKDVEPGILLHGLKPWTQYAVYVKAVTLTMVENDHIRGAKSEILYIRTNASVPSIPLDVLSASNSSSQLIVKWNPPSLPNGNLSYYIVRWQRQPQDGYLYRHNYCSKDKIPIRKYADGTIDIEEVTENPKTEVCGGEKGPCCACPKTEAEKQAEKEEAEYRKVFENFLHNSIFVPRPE
Chain of Insulin-like growth factor 1 receptor (P08069 741-1367 limits assumed): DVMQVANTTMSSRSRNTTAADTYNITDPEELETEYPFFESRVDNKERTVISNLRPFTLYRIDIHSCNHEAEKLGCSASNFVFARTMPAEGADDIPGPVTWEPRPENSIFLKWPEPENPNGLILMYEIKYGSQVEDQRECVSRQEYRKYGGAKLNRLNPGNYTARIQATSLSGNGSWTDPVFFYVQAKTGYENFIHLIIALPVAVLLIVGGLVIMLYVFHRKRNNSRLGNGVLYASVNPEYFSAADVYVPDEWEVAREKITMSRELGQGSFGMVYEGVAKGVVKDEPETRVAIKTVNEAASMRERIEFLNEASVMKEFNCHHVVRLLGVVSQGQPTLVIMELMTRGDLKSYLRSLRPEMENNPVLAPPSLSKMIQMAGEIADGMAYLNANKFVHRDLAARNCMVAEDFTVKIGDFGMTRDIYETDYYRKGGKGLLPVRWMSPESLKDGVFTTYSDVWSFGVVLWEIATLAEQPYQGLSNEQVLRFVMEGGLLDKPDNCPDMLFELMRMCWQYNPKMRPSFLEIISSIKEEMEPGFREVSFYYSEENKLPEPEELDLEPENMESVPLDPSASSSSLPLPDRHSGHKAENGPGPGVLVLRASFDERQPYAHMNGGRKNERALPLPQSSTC

[3] = target: T2, Serine/threonine-protein kinase TAO1 (Homo sapiens) (UniProt Q7L7X3); experiment: Selectivity interaction (KinomeScan (DiscoverX)) EUB0001049a TAOK1; details: at 1 µM
T2 sequence (whole entry): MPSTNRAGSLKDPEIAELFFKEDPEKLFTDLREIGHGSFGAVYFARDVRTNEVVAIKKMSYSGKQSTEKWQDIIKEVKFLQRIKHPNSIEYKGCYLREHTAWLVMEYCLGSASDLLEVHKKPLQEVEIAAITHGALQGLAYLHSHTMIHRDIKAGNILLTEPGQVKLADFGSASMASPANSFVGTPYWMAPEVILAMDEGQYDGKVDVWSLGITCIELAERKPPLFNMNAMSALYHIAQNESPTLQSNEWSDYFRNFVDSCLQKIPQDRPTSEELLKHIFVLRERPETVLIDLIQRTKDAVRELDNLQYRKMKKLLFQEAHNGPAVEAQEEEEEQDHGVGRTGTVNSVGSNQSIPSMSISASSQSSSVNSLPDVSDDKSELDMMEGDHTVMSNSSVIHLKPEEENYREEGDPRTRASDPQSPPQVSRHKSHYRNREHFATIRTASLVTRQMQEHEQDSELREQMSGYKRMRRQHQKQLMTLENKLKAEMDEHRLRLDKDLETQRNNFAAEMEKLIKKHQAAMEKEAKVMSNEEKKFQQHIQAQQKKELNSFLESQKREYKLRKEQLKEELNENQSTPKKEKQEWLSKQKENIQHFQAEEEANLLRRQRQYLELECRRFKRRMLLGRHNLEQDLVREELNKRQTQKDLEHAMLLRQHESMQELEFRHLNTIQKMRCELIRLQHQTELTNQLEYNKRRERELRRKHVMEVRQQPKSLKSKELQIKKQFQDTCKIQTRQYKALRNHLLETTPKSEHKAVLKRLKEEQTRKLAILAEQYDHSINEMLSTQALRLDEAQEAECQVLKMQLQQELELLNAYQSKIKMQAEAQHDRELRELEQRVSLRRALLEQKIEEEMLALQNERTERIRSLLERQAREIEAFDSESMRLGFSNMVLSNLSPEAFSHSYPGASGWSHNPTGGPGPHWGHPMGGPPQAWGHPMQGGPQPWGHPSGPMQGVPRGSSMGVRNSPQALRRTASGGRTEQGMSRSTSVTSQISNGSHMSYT

[4] = target: Myosin light chain kinase family member 4 (Homo sapiens, UniProt Q86YV6); experiment: Selectivity interaction (Enzymatic assay) EUB0001550a MYLK4
Chain of Myosin light chain kinase family member 4 (Q86YV6 whole entry): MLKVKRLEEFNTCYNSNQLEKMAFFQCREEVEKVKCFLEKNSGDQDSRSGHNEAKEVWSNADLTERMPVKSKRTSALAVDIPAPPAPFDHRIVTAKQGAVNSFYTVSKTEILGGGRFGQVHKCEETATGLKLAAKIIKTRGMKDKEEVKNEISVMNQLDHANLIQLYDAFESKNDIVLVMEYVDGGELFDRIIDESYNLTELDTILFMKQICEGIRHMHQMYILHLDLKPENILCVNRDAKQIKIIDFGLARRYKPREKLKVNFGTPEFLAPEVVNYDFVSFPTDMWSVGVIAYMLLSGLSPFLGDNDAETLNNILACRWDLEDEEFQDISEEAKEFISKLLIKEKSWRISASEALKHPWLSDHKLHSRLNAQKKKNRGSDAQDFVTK

[5] = target: Cell division control protein 42 homolog (Homo sapiens) (UniProt P60953); experiment: Selectivity interaction (SelectScreen profiling (Invitrogen)) EUB0000607a CDC42; details: at 2 µM
Chain of Cell division control protein 42 homolog (Homo sapiens) (P60953 whole entry, looked up): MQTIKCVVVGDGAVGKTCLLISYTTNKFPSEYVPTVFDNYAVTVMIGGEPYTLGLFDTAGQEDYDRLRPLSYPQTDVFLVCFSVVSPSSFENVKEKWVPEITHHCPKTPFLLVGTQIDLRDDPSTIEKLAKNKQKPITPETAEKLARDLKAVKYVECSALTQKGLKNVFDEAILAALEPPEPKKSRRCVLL

[6] = target: Phosphatidylinositol 4-kinase beta (Homo sapiens, UniProt Q9UBF8); experiment: Selectivity interaction (KinomeScan (DiscoverX)) EUB0000607a PI4KB; details: at 10 µM
[7] = target: Serine/threonine-protein kinase mTOR (Homo sapiens, UniProt P42345); experiment: Selectivity interaction (KinomeScan (DiscoverX)) EUB0000618a MTOR; details: at 10 µM
[8] = target: Serine/threonine-protein kinase WNK3 (Homo sapiens) (UniProt Q9BYP7); experiment: Selectivity interaction (ActivX KiNativ screen (kinase selectivity in THP-1 cell lysates)) EUB0000639a WNK3; format: subcellular; details: lysate
Chain of Serine/threonine-protein kinase WNK3 (Homo sapiens) (Q9BYP7 whole entry): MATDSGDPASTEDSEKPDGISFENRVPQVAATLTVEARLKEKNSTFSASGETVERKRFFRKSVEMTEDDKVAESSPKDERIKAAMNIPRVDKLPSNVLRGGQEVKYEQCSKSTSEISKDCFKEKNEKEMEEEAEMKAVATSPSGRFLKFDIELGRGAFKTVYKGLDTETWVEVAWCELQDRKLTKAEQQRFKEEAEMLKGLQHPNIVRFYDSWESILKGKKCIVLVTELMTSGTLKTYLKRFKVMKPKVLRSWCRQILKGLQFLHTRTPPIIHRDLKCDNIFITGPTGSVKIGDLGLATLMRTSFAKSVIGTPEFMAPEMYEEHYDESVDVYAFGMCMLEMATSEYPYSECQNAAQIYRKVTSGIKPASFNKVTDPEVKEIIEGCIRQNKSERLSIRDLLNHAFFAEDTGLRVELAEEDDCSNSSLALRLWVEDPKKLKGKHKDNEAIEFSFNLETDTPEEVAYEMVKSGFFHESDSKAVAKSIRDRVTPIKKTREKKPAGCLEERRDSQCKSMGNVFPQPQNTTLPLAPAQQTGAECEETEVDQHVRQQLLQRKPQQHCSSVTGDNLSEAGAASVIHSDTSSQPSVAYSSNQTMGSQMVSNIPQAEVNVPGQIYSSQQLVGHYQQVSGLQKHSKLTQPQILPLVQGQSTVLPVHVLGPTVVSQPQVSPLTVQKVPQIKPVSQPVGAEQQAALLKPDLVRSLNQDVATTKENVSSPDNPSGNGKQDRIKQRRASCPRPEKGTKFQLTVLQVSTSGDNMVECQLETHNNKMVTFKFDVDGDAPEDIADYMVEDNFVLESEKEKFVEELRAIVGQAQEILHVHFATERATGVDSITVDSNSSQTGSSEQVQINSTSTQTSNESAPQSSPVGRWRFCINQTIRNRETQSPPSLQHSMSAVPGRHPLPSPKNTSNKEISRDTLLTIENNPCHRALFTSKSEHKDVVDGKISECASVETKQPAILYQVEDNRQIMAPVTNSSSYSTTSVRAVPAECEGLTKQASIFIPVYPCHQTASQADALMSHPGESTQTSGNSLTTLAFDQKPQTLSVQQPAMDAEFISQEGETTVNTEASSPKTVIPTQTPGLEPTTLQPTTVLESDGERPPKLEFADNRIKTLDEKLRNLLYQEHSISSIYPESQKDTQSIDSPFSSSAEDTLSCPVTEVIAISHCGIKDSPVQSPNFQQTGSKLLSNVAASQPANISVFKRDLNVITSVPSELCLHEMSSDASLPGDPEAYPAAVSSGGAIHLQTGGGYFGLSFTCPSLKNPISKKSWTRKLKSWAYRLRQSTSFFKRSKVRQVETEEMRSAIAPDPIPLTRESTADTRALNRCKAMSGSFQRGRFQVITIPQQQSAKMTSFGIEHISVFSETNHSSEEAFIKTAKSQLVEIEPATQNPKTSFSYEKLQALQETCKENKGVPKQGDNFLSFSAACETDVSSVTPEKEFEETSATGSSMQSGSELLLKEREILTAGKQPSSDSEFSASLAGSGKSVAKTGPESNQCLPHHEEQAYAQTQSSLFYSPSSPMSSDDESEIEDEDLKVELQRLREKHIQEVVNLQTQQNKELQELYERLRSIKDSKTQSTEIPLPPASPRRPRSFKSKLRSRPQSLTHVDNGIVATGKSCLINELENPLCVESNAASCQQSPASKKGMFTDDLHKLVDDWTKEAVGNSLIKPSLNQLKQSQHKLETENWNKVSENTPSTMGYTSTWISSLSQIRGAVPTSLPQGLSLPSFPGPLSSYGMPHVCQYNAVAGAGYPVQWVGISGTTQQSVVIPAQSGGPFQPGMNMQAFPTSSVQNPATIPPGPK

[9] = target: Focal adhesion kinase 1 (Homo sapiens, UniProt Q05397); details: at 10 µM
[10] = target: Homeodomain-interacting protein kinase 2 (Homo sapiens, UniProt Q9H2X6); experiment: Selectivity interaction (Ambit KINOMEscan and KiNATiv profiling in Jurkat cells) EUB0000090b HIPK2; format: cell-based; details: at 1 µM
Chain of Homeodomain-interacting protein kinase 2 (Q9H2X6 whole entry, looked up): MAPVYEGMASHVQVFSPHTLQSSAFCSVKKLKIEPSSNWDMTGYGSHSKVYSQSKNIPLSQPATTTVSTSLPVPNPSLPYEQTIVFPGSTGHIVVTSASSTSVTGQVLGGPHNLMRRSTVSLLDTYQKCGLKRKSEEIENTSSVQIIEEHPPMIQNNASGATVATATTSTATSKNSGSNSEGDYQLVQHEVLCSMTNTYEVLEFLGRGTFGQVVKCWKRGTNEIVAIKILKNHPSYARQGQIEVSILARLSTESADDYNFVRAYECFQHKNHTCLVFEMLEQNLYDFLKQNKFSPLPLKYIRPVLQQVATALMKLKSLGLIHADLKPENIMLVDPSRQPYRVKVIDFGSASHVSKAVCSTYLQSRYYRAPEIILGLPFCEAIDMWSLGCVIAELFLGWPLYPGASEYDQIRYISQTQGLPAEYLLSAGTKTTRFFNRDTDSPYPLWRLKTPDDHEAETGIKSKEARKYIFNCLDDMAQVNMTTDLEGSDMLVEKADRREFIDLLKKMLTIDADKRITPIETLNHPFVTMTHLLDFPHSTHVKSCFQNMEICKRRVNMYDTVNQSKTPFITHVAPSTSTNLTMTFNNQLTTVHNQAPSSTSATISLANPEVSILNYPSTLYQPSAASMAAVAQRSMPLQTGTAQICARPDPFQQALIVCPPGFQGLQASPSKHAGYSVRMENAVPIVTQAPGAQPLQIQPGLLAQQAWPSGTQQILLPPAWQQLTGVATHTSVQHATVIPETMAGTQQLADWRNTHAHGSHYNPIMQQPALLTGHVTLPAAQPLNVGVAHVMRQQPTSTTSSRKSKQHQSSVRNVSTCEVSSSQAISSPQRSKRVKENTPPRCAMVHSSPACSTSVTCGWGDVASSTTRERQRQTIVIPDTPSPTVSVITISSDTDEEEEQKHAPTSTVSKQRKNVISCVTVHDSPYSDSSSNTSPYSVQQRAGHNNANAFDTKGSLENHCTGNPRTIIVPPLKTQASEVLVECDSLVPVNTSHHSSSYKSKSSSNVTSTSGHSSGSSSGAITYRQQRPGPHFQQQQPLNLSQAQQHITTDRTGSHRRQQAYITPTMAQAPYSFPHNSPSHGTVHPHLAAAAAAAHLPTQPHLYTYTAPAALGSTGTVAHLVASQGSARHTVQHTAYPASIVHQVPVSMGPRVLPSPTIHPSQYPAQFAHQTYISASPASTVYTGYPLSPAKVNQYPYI

Structure (SMILES): C=CC(=O)Nc1cc(-n2c(=O)ccc3cnc4ccc(-c5ccc(NS(C)(=O)=O)cc5)cc4c32)ccc1C
- % of control ([1]; at 1 µM): 100%
- % of control ([1]; at 10 µM): 100%

Structure (SMILES): O=C(NOC[C@H](O)CO)c1ccc(F)c(F)c1Nc1ccc(I)cc1F
- % of control [2]: 87%

Structure (SMILES): COc1cc(Nc2nc(C)cc(-c3cnn4nc(OC)ccc34)n2)cc(C(F)(F)F)c1
- % of control [3]: 96%

Structure (SMILES): CN(C)CC#Cc1ccc2[nH]c3c(c2c1)-c1nc(N)ncc1CCC3
- IC50 [4]: 66 nM

Structure (SMILES): CNC(=O)Nc1ccc(-c2nc(N3CC4CCC(C3)O4)c3cnn(C4CCC5(CC4)OCCO5)c3n2)cc1
- % of inhibition [5]: 9%
- % of control [6]: 100%

Structure (SMILES): O[C@H]1CC[C@H](Nc2ncc3nc(Nc4c(F)cc(F)cc4F)n([C@H]4CCOC4)c3n2)CC1
- % of control [7]: 68%

Structure (SMILES): CC[C@@H]1[C@H](F)C(=O)N[C@@H]1COc1nccc2cc(C(N)=O)c(OC)cc12 [ZIMLOVISERTIB]
- % of inhibition ([8]; at 0.01 µM): 3.3%
- % of inhibition ([8]; at 0.04 µM): -7.4%
- % of inhibition ([8]; at 0.2 µM): -12%
- % of inhibition ([8]; at 1 µM): -7.7%
- % of inhibition ([8]; at 5 µM): -14.5%

Structure (SMILES): CCN(CC)CCCCNc1ncc2cc(-c3cc(OC)cc(OC)c3)c(NC(=O)NC(C)(C)C)nc2n1
- % of control [9]: 100%

Structure (SMILES): CN(C)C/C=C/C(=O)Nc1ccc(C(=O)N2CCCC(Nc3ncc(Cl)c(-c4c[nH]c5ccccc45)n3)C2)cc1 (stereo not given)
- % of control [10]: 70%
